Structures can show the parent of a compound that is named as a salt. Where two headings read alike, the source gives them in different places.
Experiments:
Assay type in all cases: physicochemical
[1] = Solid-state stability (HPLC purity and XRPD crystal form on storage); conditions: for Purity (area %) / Initial purity (area %): HPLC; for Initial purity (area %): starting sample before storage
Method: About 10 mg of each solid form of the compound was weighed and added to the HPLC vial, respectively, the bottleneck was sealed with a sealing film, and 10 small holes were made on the film. The vial was placed in 25° C/60% RH and 40° C/75% RH environment for 4 weeks, samples were taken in the 1st week, the 2rd week and the 4th week respectively, the purity (by HPLC analysis) and crystal form (by X ray powder diffraction analysis) of the sample were investigated. […]

[2] = Hygroscopicity by dynamic moisture absorption (DVS); conditions: 25°C/80% RH; for moisture adsorption: DVS, 0% RH-95% RH adsorption curve; for hygroscopicity classification: criteria of 2015 edition of the Chinese Pharmacopoeia (Guidelines for Drug Hygroscopicity Test)
Method: Dynamic moisture adsorption (DVS) analysis: the instrument is a DVS Intrinsic produced by SMS company (Surface Measurement Systems); temperature, 25° C.; carrier gas, flow rate: nitrogen, 200 mL/min; mass change per unit time: 0.002%/min; relative humidity range: 0%RH-95%RH.
Dynamic moisture absorption (DVS) was used to test their hygroscopicity.

[3] = Dynamic solubility in biorelevant media SGF, FaSSIF or water; conditions: 37°C, dosed at 10 mg/mL, 1-24 hours, Figure 31
Method: The dynamic solubility of fumarate crystal form B, hydrochloride crystal form C, sulfate crystal form D, succinate crystal form E, malate crystal form F, and free crystal form A was assessed at 37°C in biorelevant media SGF, FaSSIF or water. All samples were dosed at 10 mg/mL in each solvent. The samples were sealed and mounted on a rotating disk rotating at 25 rpm, and the rotating disk was placed in a 37° C. incubator. Samples were taken at time points 1, 2, 4, and 24 hours of equilibration, and the filtrate was separated and tested concentration by HPLC and pH, while isolated solids were characterized by XRPD.

[4] = Approximate solubility in purified water
Method: To determine the approximate solubility, the corresponding solid form sample was added to a 3 mL glass vial. Purified water was incrementally introduced (50, 50, 200, and 700 µL) while vortexing and ultrasonically agitating to facilitate dissolution. […] Solvent addition was halted either when full dissolution was achieved or when the total water volume reached 1 mL. The approximate solubility was then calculated based on the final solvent volume used.

[5] = 25°C/60% RH and 40°C/75% RH, 4 weeks

SMILES	Purity (area %) ([1]; 25°C /60%RH/open, 1 week)	Purity (area %) ([1]; 25°C /60%RH/open, 2 weeks)	Purity (area %) ([1]; 25°C /60%RH/open, 4 weeks)	Purity (area %) ([1]; 40°C /75%RH/open, 1 week)	Purity (area %) ([1]; 40°C /75%RH/open, 2 weeks)	Purity (area %) ([1]; 40°C /75%RH/open, 4 weeks)	Initial purity (area %) [1] [area %]	moisture adsorption [2] [%]	hygroscopicity classification [2]	dynamic solubility ([3]; FaSSIF)	dynamic solubility ([3]; water)	HPLC purity [1, 5]	crystal form (XRPD) before and after placement [1, 5]	Solubility ([4]; listed as Free form crystal A)	Solubility [4]
CNCc1ccc(NS(=O)(=O)c2ccsc2)c(-c2ccco2)c1 [Malonate crystal form K, N-(2-(furan-2-yl)-4-((methylamino)methyl)phenyl) thiophene-3-sulfonamide]	98.64	98.61	98.59	98.64	98.58	98.46	98.64								
CNCc1ccc(NS(=O)(=O)c2ccsc2)c(-c2ccco2)c1 [succinate crystal form E, N-(2-(furan-2-yl)-4-((methylamino)methyl)phenyl)thiophene-3-sulfonamide]	98.92	98.86	98.94	98.92	98.72	98.98	98.82	0.6	slightly hygroscopic						
CNCc1ccc(NS(=O)(=O)c2ccsc2)c(-c2ccco2)c1 [free crystal form A, N-(2-(furan-2-yl)-4-((methylamino)methyl)phenyl)thiophene-3-sulfonamide]	98.18	98.14	98.1	98.19	98.2	98.13	98.11	1.6	slightly hygroscopic	negligible dissolution	negligible dissolution	did not decrease significantly	no detectable crystalline phase changes	S<2.0 mg/mL	
CNCc1ccc(NS(=O)(=O)c2ccsc2)c(-c2ccco2)c1 [sulfate crystal form D, N-(2-(furan-2-yl)-4-((methylamino)methyl)phenyl)thiophene-3-sulfonamide]	98.74	98.65	98.78	98.76	98.65	98.78	98.77	1.3	slightly hygroscopic						
CNCc1ccc(NS(=O)(=O)c2ccsc2)c(-c2ccco2)c1 [Phosphate crystal form G, N-(2-(furan-2-yl)-4-((methylamino)methyl)phenyl)thiophene-3-sulfonamide]	98.11	98.09	98.04	98.11	98.06	98.01	98.11								
CNCc1ccc(NS(=O)(=O)c2ccsc2)c(-c2ccco2)c1 [malate crystal form F, N-(2-(furan-2-yl)-4-((methylamino)methyl)phenyl)thiophene-3-sulfonamide]	98.72	98.7	98.79	98.74	98.75	98.68	98.72	1.4	slightly hygroscopic						
CNCc1ccc(NS(=O)(=O)c2ccsc2)c(-c2ccco2)c1 [fumarate crystal form B, N-(2-(furan-2-yl)-4-((methylamino)methyl)phenyl)thiophene-3-sulfonamide]	98.53	98.47	98.57	98.4	98.5	98.52	98.55	0.2	slightly hygroscopic						
CNCc1ccc(NS(=O)(=O)c2ccsc2)c(-c2ccco2)c1 [Tartrate crystal form H, N-(2-(furan-2-yl)-4-((methylamino)methyl)phenyl)thiophene-3-sulfonamide]	98.71	98.62	98.6	98.7	98.6	98.53	98.71								
CNCc1ccc(NS(=O)(=O)c2ccsc2)c(-c2ccco2)c1 [hydrochloride crystal form C, N-(2-(furan-2-yl)-4-((methylamino)methyl)phenyl)thiophene-3-sulfonamide]	98.97	98.92	98.87	99.02	98.9	99	99.02	5.5	hygroscopic						
CNCc1ccc(NS(=O)(=O)c2ccsc2)c(-c2ccco2)c1 [benzene sulfonate crystal form J, N-(2-(furan-2-yl)-4-((methylamino)methyl)-phenyl)thiophene-3-sulfonamide]	98.87	98.85	98.82	98.87	98.82	98.79	98.87								
CNCc1ccc(NS(=O)(=O)c2ccsc2)c(-c2ccco2)c1 [Pyroglutamate crystal form I, N-(2-(furan-2-yl)-4-((methylamino)methyl)phenyl)thiophene-3-sulfonamide]	98.61	98.58	98.57	98.61	98.54	98.32	98.61								S>38.0 mg/mL
